Experimental data published in patent publication US7407767B2, “Method of screening remedy for heart disease and medicinal composition for treating heart disease” (Ono Pharmaceutical Co., Ltd., priority 2003, dated 2008).

System: PD-1-deficient mouse serum
Test: Competition with recombinant cardiac troponin I in western blotting of normal mouse heart extract
Format: binding
Conditions: recombinant cardiac troponin I added at 1, 10 and 100 μg/ml
Method: PD-1-deficient mouse serum (mouse #101, #104 and #117) was used for western blotting of normal mouse heart extract. For the competition assay, recombinant cardiac troponin I was added to immune blot solution at 1, 10, and 100 μg/ml. The 30-kDa antigen recognized by PD-1-deficient mouse serum was depleted by immunoprecipitation with antibodies to anti-myocardial troponin I and was recoverable from the pellet fraction (FIG. 2 (b)).
Thus, the band was confirmed to consist solely of cardiac troponin I.

recombinant cardiac troponin I: mouse cardiac troponin I protein obtained by PreScission protease cleavage of a GST-fusion recombinant protein
intensity of the 30-kDa band recognized by PD-1-deficient mouse serum: weakened in a dose-dependent manner
